Data: publication PMC10848769, “Tartrolon E, a secondary metabolite of a marine symbiotic bacterium, is a potent inhibitor of asexual and sexual Plasmodium falciparum” (Antimicrobial Agents and Chemotherapy, 2024)
Like-named read-outs stand apart in the source and are kept apart here.

What was measured:
[1] = test system: P. falciparum clone IPC 5202; parameters: method as in BEI, Didier Menard; details: by EC50 or, for ART, RSA, well-characterized susceptibilities, ref BEI, Didier Menard; cited from earlier work
[2] = test system: P. falciparum clone IPC 3445; parameters: method as in BEI, Didier Menard; details: by EC50 or, for ART, RSA, well-characterized susceptibilities, ref BEI, Didier Menard; cited from earlier work
P. falciparum clone Dd2 [3] = details: by EC50 or, for ART, RSA, well-characterized susceptibilities; cited from earlier work
P. falciparum clone GMC1 [4] = details: by EC50 or, for ART, RSA, well-characterized susceptibilities; cited from earlier work
[5] = test system: P. falciparum clone TM90C2A; details: by EC50 or, for ART, RSA, well-characterized susceptibilities; cited from earlier work
P. falciparum clone 7G8 [6] = details: by EC50 or, for ART, RSA, well-characterized susceptibilities; cited from earlier work
P. falciparum clone V1/S [7] = details: by EC50 or, for ART, RSA, well-characterized susceptibilities; cited from earlier work
P. falciparum clone HB3 [8] = details: by EC50 or, for ART, RSA, well-characterized susceptibilities; cited from earlier work
P. falciparum clone NF54 [9] = details: by EC50 or, for ART, RSA, well-characterized susceptibilities; cited from earlier work
P. falciparum clone 3D7 [10] = details: by EC50 or, for ART, RSA, well-characterized susceptibilities; cited from earlier work
P. falciparum clone D6 [11] = details: by EC50 or, for ART, RSA, well-characterized susceptibilities; cited from earlier work
[12] = test system: P. falciparum clone D10 w/ yDHODH; details: by EC50 or, for ART, RSA, well-characterized susceptibilities; cited from earlier work
[13] = test system: P. falciparum gametocytes; parameters: method as in PMID 24206914; details: read-out: gametocytocidal potency of comparator antimalarials; cited from earlier work
[14] = test system: P. falciparum 3D7 asexual blood stages; experiment: Standard 72-hour inhibitor-response (parasite proliferation) assay; type: cell-based; details: Plasmodium falciparum, read-out: 3D7 EC50
P. falciparum clone 3D7 [15] = experiment: Standard growth inhibition assay, Pf clone panel; type: cell-based; details: Plasmodium falciparum; clone 3D7, Netherlands; read-out: EC50 (nM) (95% CI)
Protocol: (§1) A diverse panel of P. falciparum clones, collected from four continents with varying genetic backgrounds and well-characterized susceptibilities to novel and existing antimalarials, was treated with TrtE and DHA in standard growth inhibition assays. […] Additional studies are needed to determine whether there is any similarity in mechanism between TrtE and DHA.

P. falciparum clone 7G8 [16] = experiment: Standard growth inhibition assay, Pf clone panel; type: cell-based; details: Plasmodium falciparum; clone 7G8, Brazil; read-out: EC50 (nM) (95% CI)
Protocol: as §1

[17] = test system: P. falciparum clone D10 w/ yDHODH; experiment: Standard growth inhibition assay, Pf clone panel; type: cell-based; details: Plasmodium falciparum, D10, read-out: EC50 (nM) (95% CI)
Protocol: as §1

P. falciparum clone D6 [18] = experiment: Standard growth inhibition assay, Pf clone panel; type: cell-based; details: Plasmodium falciparum; clone D6, Sierra Leone; read-out: EC50 (nM) (95% CI)
Protocol: as §1

P. falciparum clone Dd2 [19] = experiment: Standard growth inhibition assay, Pf clone panel; type: cell-based; details: Plasmodium falciparum; clone Dd2, SE Asia; read-out: EC50 (nM) (95% CI)
Protocol: as §1

P. falciparum clone GMC1 [20] = experiment: Standard growth inhibition assay, Pf clone panel; type: cell-based; details: Plasmodium falciparum; clone GMC1, Goa, India; read-out: EC50 (nM) (95% CI)
Protocol: as §1

P. falciparum clone HB3 [21] = experiment: Standard growth inhibition assay, Pf clone panel; type: cell-based; details: Plasmodium falciparum; clone HB3, Honduras; read-out: EC50 (nM) (95% CI)
Protocol: as §1

[22] = test system: P. falciparum clone IPC 3445; experiment: Standard growth inhibition assay, Pf clone panel; type: cell-based; details: Plasmodium falciparum; clone IPC 3445, Palin, Cambodia; read-out: EC50 (nM) (95% CI)
Protocol: as §1

[23] = test system: P. falciparum clone IPC 5202; experiment: Standard growth inhibition assay, Pf clone panel; type: cell-based; details: Plasmodium falciparum; clone IPC 5202, Battambang, Cambodia; read-out: EC50 (nM) (95% CI)
Protocol: as §1

P. falciparum clone NF54 [24] = experiment: Standard growth inhibition assay, Pf clone panel; type: cell-based; details: Plasmodium falciparum; clone NF54, Netherlands; read-out: EC50 (nM) (95% CI)
Protocol: as §1

[25] = test system: P. falciparum clone TM90C2A; experiment: Standard growth inhibition assay, Pf clone panel; type: cell-based; details: Plasmodium falciparum, Thailand, read-out: EC50 (nM) (95% CI)
Protocol: as §1

P. falciparum clone V1/S [26] = experiment: Standard growth inhibition assay, Pf clone panel; type: cell-based; details: Plasmodium falciparum, Vietnam, read-out: EC50 (nM) (95% CI)
Protocol: as §1

Pf 3D7 = experiment: Parasite growth alongside mammalian cytotoxicity assays; type: cell-based; details: Plasmodium falciparum; 3D7, grown under identical conditions alongside mammalian cells; read-out: EC50 (µM) (95% CI) 3D7
Protocol: (§2) In preliminary experiments to evaluate cytotoxicity to mammalian cells, the murine leukemia L1210 cell line and the human liver cell line HepG2 were grown under identical conditions alongside Pf 3D7. These were treated with TrtE, the chemotherapeutic methotrexate, and DSM265, an inhibitor of parasite dihydroorotate dehydrogenase ([19]).

[27] = test system: human liver cell line HepG2; experiment: In vitro cytotoxicity assay; type: cell-based; details: for EC50: Homo sapiens, HepG2, read-out: EC50 (µM) (95% CI) HepG2
Protocol: as §2

[28] = test system: murine leukemia L1210 cell line; experiment: In vitro cytotoxicity assay; details: for EC50: Mus musculus, L1210, read-out: EC50 (µM) (95% CI) L1210
Protocol: as §2

Compound | Clone susceptibility to antimalarial (R/S) [1] | Clone susceptibility to antimalarial (R/S) [2] | Clone susceptibility to antimalarial (R/S) (P. falciparum clone Dd2 [3]) | Clone susceptibility to antimalarial (R/S) (P. falciparum clone GMC1 [4]) | Clone susceptibility to antimalarial (R/S) [5] | Clone susceptibility to antimalarial (R/S) (P. falciparum clone 7G8 [6]) | Clone susceptibility to antimalarial (R/S) (P. falciparum clone V1/S [7]) | Clone susceptibility to antimalarial (R/S) (P. falciparum clone HB3 [8]) | Clone susceptibility to antimalarial (R/S) (P. falciparum clone NF54 [9]) | Clone susceptibility to antimalarial (R/S) (P. falciparum clone 3D7 [10]) | Clone susceptibility to antimalarial (R/S) (P. falciparum clone D6 [11]) | Clone susceptibility to antimalarial (R/S) [12] | EC50 ([14]; 3D7, 72-hour assay) [nM] | other results
Cc1cc(Nc2ccc3ccccc3c2)n2ncnc2n1 [DSM1] | S | S | S | S | S | S | S | S | S | S | S | R | – | –
COc1cc(NC(C)CCCN)c2ncccc2c1 (stereo not shown) [primaquine] | – | – | – | – | – | – | – | – | – | – | – | – | – | EC50 [13]: > 40000 nM
C[C@H]1[C@@H](O)O[C@@H]2O[C@@]3(C)CC[C@H]4[C@H](C)CC[C@@H]1[C@@]24OO3 [DHA, dihydroartemisinin] | – | – | – | – | – | – | – | – | – | – | – | – | 0.129 | EC50 (P. falciparum clone 3D7 [15]): 0.11 nM; EC50 (P. falciparum clone 7G8 [16]): 0.095 nM; EC50 [17]: 0.12 nM; EC50 (P. falciparum clone D6 [18]): 0.17 nM; EC50 (P. falciparum clone Dd2 [19]): 0.14 nM; EC50 (P. falciparum clone GMC1 [20]): 0.21 nM; EC50 (P. falciparum clone HB3 [21]): 0.16 nM; EC50 [22]: 0.92 nM; EC50 [23]: 0.94 nM; EC50 (P. falciparum clone NF54 [24]): 0.15 nM; EC50 [25]: 0.091 nM; EC50 (P. falciparum clone V1/S [26]): 0.084 nM
COc1ccc2nc3cc(Cl)ccc3c(Nc3cc(CN4CCCC4)c(O)c(CN4CCCC4)c3)c2n1 [pyronaridine] | – | – | – | – | – | – | – | – | – | – | – | – | – | EC50 [13]: 4260 nM
C=C[C@H]1C[N@@]2CC[C@H]1C[C@H]2[C@H](O)c1ccnc2ccc(OC)cc12 [QN, quinine] | R | R | R | – | – | R | R | S | S | S | S | – | – | –
CCc1nc(N)nc(N)c1-c1ccc(Cl)cc1 [pyrimethamine] | R | R | R | R | R | R | R | R | S | S | S | – | 19 | –
CN(Cc1cnc2nc(N)nc(N)c2n1)c1ccc(C(=O)N[C@@H](CCC(=O)O)C(=O)O)cc1 [Methotrexate] | – | – | – | – | – | – | – | – | – | – | – | – | – | EC50 (Pf 3D7): 0.047 µM; EC50 [27]: > 1 µM; EC50 [28]: 0.012 µM
CC1(C)N=C(N)N=C(N)N1c1ccc(Cl)cc1 [CG, cycloguanil] | R | R | R | R | R | R | R | S | S | S | S | – | – | –
CCN(CC)CCCC(C)Nc1ccnc2cc(Cl)ccc12 (stereo not shown) [chloroquine] | R | R | R | R | R | R | R | S | S | S | S | S | – | EC50 ([14]; 3D7, 72 h): 6 nM
Cc1cc(Nc2ccc(S(F)(F)(F)(F)F)cc2)n2nc(C(C)(F)F)nc2n1 [DSM265] | – | – | – | – | – | – | – | – | – | – | – | – | 5 | EC50 (Pf 3D7): 0.005 µM; Selectivity index (EC50 of HepG2/EC50 3D7) ([27]; HepG2 vs 3D7): 1,980; EC50 [27]: 9.9 µM; Selectivity index (EC50 of L1210/EC50 3D7) ([28]; L1210 vs 3D7): > 4,000; EC50 [28]: > 20 µM
O=C1C(O)=C([C@H]2CC[C@H](c3ccc(Cl)cc3)CC2)C(=O)c2ccccc21 [atovaquone] | S | S | S | S | S | S | S | S | S | S | S | R | 1 | –
COc1ncnc(NS(=O)(=O)c2ccc(N)cc2)c1OC [SDX, sulfadoxine] | R | R | R | R | – | – | – | S | R | R | S | – | – | –
OC(c1cc(C(F)(F)F)nc2c(C(F)(F)F)cccc12)C1CCCCN1 (stereo not shown) [MQ, mefloquine] | R | R | R | S | R | S | S | S | S | S | S | S | – | –
C[C@@H]1CC[C@H]2[C@@H](C)C(=O)O[C@@H]3O[C@@]4(C)CC[C@@H]1[C@]32OO4 [artemisinin] | R | R | S | S | S | S | S | S | S | S | S | S | 6 | –
